For 31 compounds, IC50 results are on record in patent publication US10214492B2, “Heterocyclic inhibitors of MCT4” (Vettore, LLC, priority 2016, dated 2019).

Usually IC50 stands for the point on the concentration scale where inhibition reaches its midpoint. A higher IC50 goes with a need for much substance.

Assay [1] addresses MCT4 (Homo sapiens (Human), UniProt O15427). In words: Assay 3: MCT4-mediated lactate transport in MDA-MB-231 breast cancer cells. It counts as cell-based. To be noted: MDA-MB-231 cells; lactate transport. On the procedure:
(§1) 10 μL of a 30 mM DMSO stock of BCECF-AM ester (Life Technologies) is added and the cells are incubated at 37° C. for 5 min. The cells are pelleted (300 g, 5 min), washed once with 1 mL Tyrode's Solution, pH 7.4, re-pelleted (300 g, 5 min), and resuspended in 1 mL Tyrode's Solution, pH 7.4.
MCT4 activity may be assessed by monitoring the intracellular pH change that accompanies lactate/proton symport, using the pH-sensitive fluorescent dye 2′,7′-bis-(carboxyethyl)-5(6)-carboxyfluorescein (BCECF), in a manner similar to that previously reported for MCT1 and MCT4. The following is an exemplary procedure for assaying MCT4 activity of the compounds of Formula (I).

Assay [2] has as its target MCT1 (Homo sapiens (Human), UniProt P53985). In words: Assay 4: MCT1-mediated lactate transport in BT20 breast cancer cells. In kind it is cell-based. To be noted: Table 27. The method, then:
as §1
Assay 4: MCT1-Mediated Lactate Transport in BT20 Breast Cancer Cells.
Preparation of BCECF loaded cells are as described for Assay 1. Lactate transport assay is as described for Assay 1, except 10 mM L-lactate (rather than 50 mM) is added.

MCT1, sequence (P53985 whole entry): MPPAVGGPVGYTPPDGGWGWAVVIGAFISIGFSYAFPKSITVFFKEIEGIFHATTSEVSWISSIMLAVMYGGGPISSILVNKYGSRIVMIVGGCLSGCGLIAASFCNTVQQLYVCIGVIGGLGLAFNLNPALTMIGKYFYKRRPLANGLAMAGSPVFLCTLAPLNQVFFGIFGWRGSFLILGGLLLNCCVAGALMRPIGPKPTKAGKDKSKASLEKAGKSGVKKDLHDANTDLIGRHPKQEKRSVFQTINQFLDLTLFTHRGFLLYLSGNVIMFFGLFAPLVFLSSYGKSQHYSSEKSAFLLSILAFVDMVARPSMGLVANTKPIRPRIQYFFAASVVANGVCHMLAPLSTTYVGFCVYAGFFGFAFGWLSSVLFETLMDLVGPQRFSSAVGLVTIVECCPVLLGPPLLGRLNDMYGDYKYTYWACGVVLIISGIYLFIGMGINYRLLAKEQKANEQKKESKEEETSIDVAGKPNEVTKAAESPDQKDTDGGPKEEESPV
MCT1, sequence (P35613 140-385 partner): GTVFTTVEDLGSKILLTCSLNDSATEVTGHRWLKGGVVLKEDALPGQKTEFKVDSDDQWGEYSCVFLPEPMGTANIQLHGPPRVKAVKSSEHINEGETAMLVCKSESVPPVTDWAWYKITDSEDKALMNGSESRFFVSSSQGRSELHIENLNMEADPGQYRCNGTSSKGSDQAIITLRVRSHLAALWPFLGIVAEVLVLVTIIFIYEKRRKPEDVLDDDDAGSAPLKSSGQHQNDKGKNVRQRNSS
MCT4, sequence (O15427 whole entry, looked up): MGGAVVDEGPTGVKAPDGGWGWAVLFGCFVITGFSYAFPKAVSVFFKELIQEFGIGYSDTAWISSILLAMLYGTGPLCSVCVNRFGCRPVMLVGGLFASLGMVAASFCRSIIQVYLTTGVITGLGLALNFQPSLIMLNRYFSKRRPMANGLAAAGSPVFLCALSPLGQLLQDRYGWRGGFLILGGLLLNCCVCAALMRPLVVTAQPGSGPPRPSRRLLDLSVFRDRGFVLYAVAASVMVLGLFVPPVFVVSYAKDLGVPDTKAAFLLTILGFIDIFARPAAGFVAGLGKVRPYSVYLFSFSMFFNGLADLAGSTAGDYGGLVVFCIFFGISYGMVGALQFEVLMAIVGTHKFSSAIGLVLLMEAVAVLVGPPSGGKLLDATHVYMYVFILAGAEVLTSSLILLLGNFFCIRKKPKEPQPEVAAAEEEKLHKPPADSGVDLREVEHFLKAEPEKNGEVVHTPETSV
MCT4, sequence (P35613 whole entry partner, looked up): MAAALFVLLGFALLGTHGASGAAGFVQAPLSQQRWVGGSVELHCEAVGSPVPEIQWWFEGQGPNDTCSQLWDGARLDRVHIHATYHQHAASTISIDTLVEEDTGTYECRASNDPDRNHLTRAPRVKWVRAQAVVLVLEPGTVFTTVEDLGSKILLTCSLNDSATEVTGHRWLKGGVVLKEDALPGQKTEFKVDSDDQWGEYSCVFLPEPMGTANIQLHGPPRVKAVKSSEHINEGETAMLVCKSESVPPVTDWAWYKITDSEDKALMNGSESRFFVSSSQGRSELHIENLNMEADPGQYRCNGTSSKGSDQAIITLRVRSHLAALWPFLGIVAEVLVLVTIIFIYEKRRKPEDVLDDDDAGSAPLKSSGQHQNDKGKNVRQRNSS

With “2-((1-[(2-Chlorophenyl)methyl]-5-(4-cyclopropoxythien-2-yl)-1H-pyrazol-3-yl(methoxy)-2-methylpropanoic acid [Example 130]”, the results for the IC50 in assay [1] and in assay [2] were 98 nM and 55 nM, respectively.

On to `CC(C)COc1cccc(-c2cc(COC(C)(C)C(=O)O)nn2-c2ccccc2Cl)c1` [Example 101, 2-([1-(2-Chlorophenyl)-5-[3-(2-methyl-propoxy)phenyl]-1H-pyrazol-3-yl)methoxy)-2-methylpropanoic acid], for which the figures for the IC50 in assay [1] and in assay [2] were 3.4 nM and 12000 nM, respectively.

As to `COc1ccccc1-n1nc(COC(C)(C)C(=O)O)cc1-c1cccc(OCC(C)C)c1` [Example 102, 2-([1-(2-Methoxyphenyl)-5-[3-(2-methylpropoxy)phenyl]-1H-pyrazol-3-yl]methoxy)-2-methylpropanoic acid], the IC50 in assay [1] was determined as 15 nM; in assay [2] it was 42000 nM.

`CC(C)COc1cccc(-c2cc(COC(C)(C)C(=O)O)nn2-c2ccccc2N(C)C)c1` [Example 103, 2-([1-[2-(Dimethylamino)phenyl]-5-[3-(2-methylpropoxy)phenyl]-1H-pyrazol-3-yl]methoxy)-2-methylpropanoic acid]: the IC50 in assay [1] was 2.6 nM; in assay [2], 28000 nM.

As for `CC(C)COc1cccc(-c2cc(COC(C)(C)C(=O)O)nn2-c2ccccc2)c1` [Example 104, 2-methyl-2-([5-[3-(2-methylpropoxy)phenyl]-1-phenyl-1H-pyrazol-3-yl]methoxy)propanoic acid], the results for the IC50 in assay [1] and in assay [2] were 20 nM and 12000 nM, respectively.

Regarding `Cc1ccccc1-n1nc(COC(C)(C)C(=O)O)cc1-c1cccc(OCC(C)C)c1` [Example 105, 2-Methyl-2-([1-(2-methylphenyl)-5-[3-(2-methylpropoxy)phenyl]-1H-pyrazol-3-yl]methoxy]propanoic acid], the IC50 was 7.6 nM in assay [1] and 15000 nM in assay [2].

`CC(C)COc1cccc(-c2cc(COC(C)(C)C(=O)O)nn2-c2ccccc2F)c1` [Example 106, 2-([1-(2-fluorophenyl)-5-[3-(2-methyl-propoxy)phenyl]-1H-pyrazol-3-yl)methoxy)-2-methylpropanoic acid]: the concentration for half-maximal inhibition (IC50) in assay [1] came out at 12 nM; in assay [2], 21000 nM.

As to `CC(C)COc1cccc(-c2cc(COC(C)(C)C(=O)O)nn2Cc2ccc(N(C)C)cc2)c1` [Example 107, 2-[(1-[[4-(Dimethylamino)phenyl]methyl]-5-[3-(2-methylpropoxy)phenyl]-1H-pyrazol-3-yl)methoxy)-2-methylpropanoic acid], the values for the 50% inhibitory concentration (IC50) in assay [1] and in assay [2] were 170 nM and 9900 nM, respectively.

For `CC(C)COc1cccc(-c2cc(COC(C)(C)C(=O)O)nn2Cc2cccc(N(C)C)c2)c1` [Example 108, 2-[(1-[[3-(Dimethylamino)phenyl]-methyl]-5-[3-(2-methylpropoxy)phenyl]-1H-pyrazol-3-yl)methoxy)-2-methylpropanoic acid], the IC50 in assay [1] is 36 nM; in assay [2], 5200 nM.

For the compound `CC(C)COc1cccc(-c2cc(COC(C)(C)C(=O)O)nn2Cc2ccccc2N(C)C)c1` [Example 109, 2-[(1-[[2-(Dimethylamino)phenyl]-methyl]-5-[3-(2-methylpropoxy)phenyl]-1H-pyrazol-3-yl)methoxy)-2-methylpropanoic acid], the IC50 is 2.1 nM in assay [1] and over 11000 nM in assay [2].

Turning to `COc1ccccc1Cn1nc(COC(C)(C)C(=O)O)cc1-c1cccc(OC2CC2)c1` [Example 111, 2-([5-(3-Cyclopropoxyphenyl)-1-[(2-methoxyphenyl)methyl]-1H-pyrazol-3-yl)methoxy)-2-methylpropanoic acid], the half-inhibitory concentration (IC50) in assay [1] was 7.9 nM; in assay [2] it was 32000 nM.

With `COc1ccccc1-n1nc(COC(C)(C)C(=O)O)cc1-c1cccc(OC2CC2)c1` [Example 112, 2-([5-(3-cyclopropoxyphenyl)-1-(2-methoxyphenyl)-1H-pyrazol-3-yl]methoxy)-2-methylpropanoic acid], the figures for the IC50 in assay [1] and in assay [2] were 29 nM and 94000 nM, respectively.

As for `COc1ccccc1-n1nc(COC(C)(C)C(=O)O)cc1-c1cccc(OC(C)C)c1` [Example 113, 2-([1-(2-Methoxyphenyl)-5-[3-(propan-2-yloxy)phenyl]-1H-pyrazol-3-yl]methoxy)-2-methylpropanoic acid], the figures for the IC50 in assay [1] and in assay [2] were 6.7 nM and 33000 nM, respectively.

`CN(C)c1ccccc1-n1nc(COC(C)(C)C(=O)O)cc1-c1cccc(OC2CC2)c1` [Example 114, 2-([5-(3-cyclopropoxyphenyl)-1-[2-(dimethylamino)phenyl]-1H-pyrazol-3-yl]methoxy)-2-methylpropanoic acid]: the half-maximal inhibitory concentration (IC50) was found to be 4.3 nM in assay [1] and 73000 nM in assay [2].

In turn, `COc1cccc(-c2cc(COC(C)(C)C(=O)O)nn2-c2cccnc2)c1` [Example 115, 2-([5-(3-Methoxyphenyl)-1-(pyridin-3-yl)-1H-pyrazol-3-yl]methoxy)-2-methylpropanoic acid] returned an IC50 in assay [2] of over 100000 nM.

As for `COc1cccc(-c2cc(COC(C)(C)C(=O)O)nn2-c2ccccc2F)c1` [Example 117, 2-([1-(2-Fluorophenyl)-5-(3-methoxyphenyl)-1H-pyrazol-3-yl]methoxy)-2-methylpropanoic acid], the IC50 in assay [2] is over 100000 nM.

In assay [2], `COc1cccc(-c2cc(COC(C)(C)C(=O)O)nn2-c2ccccc2C)c1` [Example 118, 2-([5-(3-methoxyphenyl)-1-(2-methylphenyl)-1H-pyrazol-3-yl]methoxy)-2-methylpropanoic acid] displayed an IC50 of 50000 nM.

On to `COc1cccc(-c2cc(COC(C)(C)C(=O)O)nn2-c2ccccc2OC)c1` [Example 119, 22-([1-(2-Methoxyphenyl)-5-(3-methoxyphenyl)-1H-pyrazol-3-yl]methoxy)-2-methylpropanoic acid], for which the IC50 in assay [2] came out at 65000 nM.

With `CC[C@H](OCc1cc(-c2cccc(OC)c2)n(Cc2ccccc2Cl)n1)C(=O)O` [Example 122, (2S)-2-([1-[(2-Chlorophenyl)methyl]-5-(3-methoxyphenyl)-1H-pyrazol-3-yl]methoxy)-butanoic acid], the values for the IC50 in assay [1] and in assay [2] were 50 nM and 2500 nM, respectively.

For `CC[C@@H](OCc1cc(-c2cccc(OC)c2)n(Cc2ccccc2Cl)n1)C(=O)O` [Example 123], the IC50 is 1500 nM in assay [1] and 11000 nM in assay [2].

Turning to `COc1cccc(-c2cc(CO[C@@H](C)C(=O)O)nn2Cc2ccccc2Cl)c1` [Example 124, (2S)-2-([1-[(2-Chlorophenyl)methyl]-5-(3-methoxyphenyl)-1H-pyrazol-3-yl]methoxy)-propanoic acid], the IC50 turned out to be 420 nM in assay [1] and 31000 nM in assay [2].

`COc1cccc(-c2cc(CO[C@H](C)C(=O)O)nn2Cc2ccccc2Cl)c1` [Example 125, (2R)-2-([1-[(2-Chlorophenyl)methyl]-5-(3-methoxyphenyl)-1H-pyrazol-3-yl]methoxy)-propanoic acid]: the IC50 in assay [1] is 5900 nM.

As to `COc1ccccc1-c1cc(COC(C)(C)C(=O)O)nn1Cc1ccccc1Cl` [Example 126], the IC50 in assay [1] was determined as 130 nM; in assay [2], 35000 nM.

As to `COc1ccc(-c2cc(COC(C)(C)C(=O)O)nn2Cc2ccccc2Cl)cc1` [Example 127, 2-([1-[(2-Chlorophenyl)methyl]-5-(4-methoxyphenyl)-1H-pyrazol-3-yl]methoxy)-2-methylpropanoic acid], the IC50 in assay [1] came to 41 nM; in assay [2], 15000 nM.

`CC(C)COc1ccc(-c2cc(COC(C)(C)C(=O)O)nn2Cc2ccccc2Cl)s1` [Example 128, 2-([1-[(2-Chlorophenyl)methyl]-5-[5-(2-methylpropoxy)thien-2-yl]-1H-pyrazol-3-yl]methoxy)-2-methylpropanoic acid]: the figures for the IC50 in assay [1] and in assay [2] were 1.2 nM and over 11000 nM, respectively.

With `CC(C)Oc1ccc(-c2cc(COC(C)(C)C(=O)O)nn2Cc2ccccc2Cl)s1` [Example 129, 2-([1-[(2-Chlorophenyl)methyl]-5-[5-(propan-2-yloxy)thien-2-yl]-1H-pyrazol-3-yl]methoxy)-2-methylpropanoic acid], the IC50 in assay [1] worked out at 2.8 nM; in assay [2], 16000 nM.

As to `COc1cccc(-c2cc(COC(C)(C)C(=O)O)nn2Cc2c(F)cccc2N(C)C)c1` [Example 136, 2-[(1-[(2-(Dimethylamino)-6-fluoro-phenyl]methyl]-5-(3-methoxyphenyl)-1H-pyrazol-3-yl)methoxy)-2-methylpropanoic acid], the IC50 in assay [2] is over 33000 nM.

In turn, `COc1cc(OC)cc(-c2cc(COC(C)(C)C(=O)O)nn2-c2cccc(Cl)c2)c1` [Example 241, 2-([5-(3,5-Dimethoxyphenyl)-1-(3-chlorophenyl)-1H-pyrazol-3-yl]methoxy)-2-methylpropanoic acid] displayed an IC50 in assay [2] of 8500 nM.

On to `COc1cc(OC)cc(-c2cc(COC(C)(C)C(=O)O)nn2-c2cccc(OC)c2)c1` [Example 242, 2-([5-(3,5-Dimethoxyphenyl)-1-(3-methoxyphenyl)-1H-pyrazol-3-yl]methoxy)-2-methylpropanoic acid], for which the half-maximal inhibitory concentration (IC50) in assay [2] worked out at 57000 nM.

Take `Cn1cnc2ccc(-c3cc(COC(C)(C)C(=O)O)nn3Cc3ccccc3Cl)cc21` [Example 248, 2-([1-[(2-Chlorophenyl)methyl]-5-(1-methyl-1H-1,3-benzodiazol-6-yl)-1H-pyrazol-3-yl]methoxy)-2-methylpropanoic acid]: in assay [2], the IC50 was over 100000 nM.

`Cc1nn(C)c2c(-n3nc(COC(C)(C)C(=O)O)cc3-c3cccc(OCC(C)(C)C)c3)cccc12` [Example 255] displayed an IC50 in assay [2] of 7300 nM.
